In brackets after ≈: the same amount, converted by molar mass. Where two headings read alike, the source gives them in different places.
Legend:
Format in all cases: cell-based
[1] = system: B. thetaiotaomicron ATCC 29741; test: Antibacterial MIC, CLSI broth microdilution; conditions: Bacteroides thetaiotaomicron
Experimental: (§1) Grain (−) and gram (+) antibacterial minimum inhibitory concentration (MIC) values (μg/mL) were obtained using CLSI methodology for anti-bacterial susceptibility testing. On each day of testing, serial dilutions of compounds were prepared in microdilution plates using a Tecan robotic workstation. Mueller Hinton broth cultures of representative sensitive and resistant gram negative strains were grown or adjusted to match the turbidity of a 0.5 McFarland standard. 1:200 dilutions were made in an appropriate broth (cation supplemented Mueller Hinton broth) to allow a final inoculum of 1×10^5 cfu. Plates were incubated at 35° C. in ambient air for 18-24 hours, were read spectrophotometrically and checked manually for evidence of bacterial growth. The lowest dilution of compound that inhibited growth was recorded as the MIC. Lysed horse blood was used to supplement broth for testing S. pneumoniae. The MIC's for each compound were assessed against S. aureus, S. pneumoniae, P. acnes, E. coli and B. theta.

[2] = system: E. coli ATCC 25922; test: Antibacterial MIC, CLSI broth microdilution; conditions: Escherichia coli, ATCC25922; 35° C., 18-24 hours
Experimental: as §1

[3] = system: E. coli MG 1655; test: Antibacterial MIC, CLSI broth microdilution; conditions: Escherichia coli, MG1655; 35° C., 18-24 hours
Experimental: as §1

[4] = system: P. acnes ATCC 11827; test: Antibacterial MIC, CLSI broth microdilution; conditions: Cutibacterium acnes, ATCC11827; 35° C., 18-24 hours
Experimental: as §1

[5] = system: P. acnes ATCC 6919; test: Antibacterial MIC, CLSI broth microdilution; conditions: Cutibacterium acnes, ATCC6919; 35° C., 18-24 hours
Experimental: as §1

[6] = system: S. aureus RN450; test: Antibacterial MIC, CLSI broth microdilution; conditions: Staphylococcus aureus, RN450; 35° C., 18-24 hours
Experimental: as §1

[7] = system: S. pneumoniae 157E - Strep; test: Antibacterial MIC, CLSI broth microdilution; conditions: Streptococcus pneumoniae, 157ESTREP; 35° C., 18-24 hours; lysed horse blood
Experimental: as §1

[8] = in vitro
Experimental: Mammalian cell cytotoxicity was assessed to evaluate potential in vivo risks associated with the tetracycline compounds of the invention. A soluble, non-toxic redox dye (“Resazurin”; Alamar Blue) was used to assess a tetracycline compound's effect on cellular metabolism. At the onset of the experiment, cultures of mammalian COS-1 or CHO cells were washed, trypsinized, and harvested. […] On the next day, serial dilutions of test drug were prepared under sterile conditions and transferred to cell plates. Plates were then incubated under the above conditions for 24 hours. Following the incubation period, the media/drug was aspirated, and 50 μL of resazurin was added. Plates were then incubated under the above conditions for 2 hours and then in the dark at room temperature for an additional 30 minutes. Fluorescence measurements were taken (excitation 535 nm, emission 590 nm) and toxic effects in treated versus control cells were compared based on the degree of fluorescence in each well.

[9] = ATCC29741, 35° C., 18-24 hours, read-out: MIC B. thetaiotaomicron ATCC 29741

| MIC [1, 9] [µg/mL] | MIC [2] [µg/mL] | MIC [3] [µg/mL] | MIC [4] [µg/mL] | MIC [5] [µg/mL] | MIC [6] [µg/mL] | MIC [7] [µg/mL] | IC50 at 24 h ([8]; African green monkey) [µg/mL] | IC50 at 24 h ([8]; Chinese hamster) [µg/mL] | SMILES | MIC ([1]; ATCC29741, read-out: MIC B. thetaiotaomicron ATCC 29741) [µg/mL] |
| --- | --- | --- | --- | --- | --- | --- | --- | --- | --- | --- |
| 4 to 8 (≈ 7.39 to 14.8 µM) | > 8 | > 8 | < 4 | < 4 | < 4 | 4 to 8 (≈ 7.39 to 14.8 µM) | > 75 | > 75 | CN(C)[C@H]1C(O)=C(C(N)=O)C(=O)[C@@]2(O)C(O)=C3C(=O)c4c(O)ccc(CNOCC(F)(F)F)c4C[C@H]3C[C@@H]12 [EA] | – |
| – | > 8 | > 8 | – | – | < 4 | < 4 | – | – | CN(C)[C@@H]1C(O)=C(C(N)=O)C(=O)[C@@]2(O)C(O)=C3C(=O)c4c(O)ccc(CN5OCCC5=N)c4C[C@H]3C[C@@H]12 [EC] | – |
| > 8 | 4 to 8 (≈ 9.08 to 18.2 µM) | > 8 | < 4 | < 4 | < 4 | < 4 | > 75 | > 75 | CC(=O)c1cccc2c1C[C@H]1C[C@H]3[C@H](N(C)C)C(O)=C(C(N)=O)C(=O)[C@@]3(O)C(O)=C1C2=O [E] | – |
| 4 to 8 (≈ 7.39 to 14.8 µM) | > 8 | > 8 | < 4 | < 4 | < 4 | < 4 | < 35 | < 35 | C=CCN(Cc1ccc(O)c2c1C[C@H]1C[C@H]3[C@H](N(C)C)C(O)=C(C(N)=O)C(=O)[C@@]3(O)C(O)=C1C2=O)C(=O)OC [F] | – |
| > 8 | 4 to 8 (≈ 7.85 to 15.7 µM) | > 8 | 4 to 8 (≈ 7.85 to 15.7 µM) | 4 to 8 (≈ 7.85 to 15.7 µM) | < 4 | < 4 | > 75 | > 75 | CC1CCN(Cc2cccc3c2C[C@H]2C[C@H]4[C@@H](N(C)C)C(O)=C(C(N)=O)C(=O)[C@@]4(O)C(O)=C2C3=O)CC1 [G] | – |

More lines, now with the values behind:

| SMILES | MIC [1, 9] [µg/mL] | MIC [2] [µg/mL] | MIC [3] [µg/mL] | MIC [4] [µg/mL] | MIC [5] [µg/mL] | MIC [6] [µg/mL] | MIC [7] [µg/mL] | IC50 at 24 h ([8]; African green monkey) [µg/mL] | IC50 at 24 h ([8]; Chinese hamster) [µg/mL] | MIC ([1]; ATCC29741, read-out: MIC B. thetaiotaomicron ATCC 29741) [µg/mL] |
| --- | --- | --- | --- | --- | --- | --- | --- | --- | --- | --- |
| CC(=O)c1cccc2c1C[C@H]1C[C@H]3[C@@H](N(C)C)C(O)=C(C(N)=O)C(=O)[C@@]3(O)C(O)=C1C2=O [D] | > 8 | > 8 | > 8 | 4 to 8 (≈ 9.08 to 18.2 µM) | 4 to 8 (≈ 9.08 to 18.2 µM) | < 4 | < 4 | > 75 | > 75 | – |
| CN(C)[C@H]1C(O)=C(C(N)=O)C(=O)[C@@]2(O)C(O)=C3C(=O)c4c(O)ccc(CNOCCF)c4C[C@H]3C[C@@H]12 [EB] | 4 to 8 (≈ 7.91 to 15.8 µM) | > 8 | > 8 | < 4 | < 4 | < 4 | 4 to 8 (≈ 7.91 to 15.8 µM) | – | – | – |
| COC(=O)CONCc1ccc(O)c2c1C[C@H]1C[C@H]3[C@H](N(C)C)C(O)=C(C(N)=O)C(=O)[C@@]3(O)C(O)=C1C2=O [ED] | < 4 | 4 to 8 (≈ 7.53 to 15.1 µM) | 4 to 8 (≈ 7.53 to 15.1 µM) | < 4 | < 4 | < 4 | < 4 | < 35 | < 35 | – |
| CON(C)Cc1ccc2c(c1O)C(=O)C1=C(O)[C@]3(O)C(=O)C(C(N)=O)=C(O)[C@@H](N(C)C)[C@@H]3C[C@@H]1C2 [GL] | – | > 8 | > 8 | 4 to 8 (≈ 8.2 to 16.4 µM) | 4 to 8 (≈ 8.2 to 16.4 µM) | 4 to 8 (≈ 8.2 to 16.4 µM) | 4 to 8 (≈ 8.2 to 16.4 µM) | 35 to 75 (≈ 71.8 to 154 µM) | 35 to 75 (≈ 71.8 to 154 µM) | 4 to 8 (≈ 8.2 to 16.4 µM) |
| CCONCc1ccc2c(c1O)C(=O)C1=C(O)[C@]3(O)C(=O)C(C(N)=O)=C(O)[C@@H](N(C)C)[C@@H]3C[C@@H]1C2 [GM] | 4 to 8 (≈ 8.2 to 16.4 µM) | > 8 | > 8 | 4 to 8 (≈ 8.2 to 16.4 µM) | < 4 | < 4 | < 4 | < 35 | < 35 | – |

Reference: US9012433B2, “Substituted tetracycline compounds” (Paratek Pharmaceuticals, Inc., priority 2006, dated 2015)
